The source of these data is PubChem BioAssay AID214 (DTP/NCI, 2004).

Values joined by “and” are separate entries in the source; they are usually repeats but may differ in a detail not shown here. Identical values can stand only once. Inconclusive results are not listed.

This assay has as its system B6C3F1 mice, colon carcinoma 38 s.c., T/C. Put plainly: NCI In Vivo Anticancer Drug Screen. Data for tumor model Colon Carcinoma 38 (subcutaneous) in B6C3F1 mice. The following applies: higher = larger tumour. As for the experimental part: The antitumor activity of compounds was measured in mice bearing transplantable tumors. Survival or tumor size were measured and the results are expressed as the measurement made in the treated group (T) divided by the measurement made in the vehicle treated control group (C). The tumor model used in this assay is Colon Carcinoma 38 (subcutaneous) in B6C3F1 mice

[1] abbreviates: endpoint: median tumor weight (est.), dose: 300.0 mg/kg/injection, schedule: Q07DX002 (ip), vehicle: saline.
Setting [2] is: endpoint: median tumor weight (est.), dose: 600.0 mg/kg/injection, schedule: Q07DX002 (ip), vehicle: saline.
Setting [3] is: endpoint: median tumor weight (est.), dose: 1200.0 mg/kg/injection, schedule: Q07DX002 (ip), vehicle: saline.
Setting [4] is: endpoint: median tumor weight (est.), dose: 50.0 mg/kg/injection, schedule: Q07DX002 (ip), vehicle: suspension in saline.
Where [5] appears, read: endpoint: median tumor weight (est.), dose: 100.0 mg/kg/injection, schedule: Q07DX002 (ip), vehicle: suspension in saline.
Setting [6] is: endpoint: median tumor weight (est.), dose: 200.0 mg/kg/injection, schedule: Q07DX002 (ip), vehicle: saline.
The mark [7] stands for this setting: endpoint: median tumor weight (est.), dose: 50.0 mg/kg/injection, schedule: Q07DX002 (ip), vehicle: saline.
Where [8] appears, read: endpoint: median tumor weight (est.), dose: 100.0 mg/kg/injection, schedule: Q07DX002 (ip), vehicle: saline.
The mark [9] stands for this setting: endpoint: median tumor weight (est.), dose: 400.0 mg/kg/injection, schedule: Q07DX002 (ip), vehicle: saline.
[10] abbreviates: endpoint: median tumor weight (est.), dose: 50.0 mg/kg/injection, schedule: Q07DX002 (ip), vehicle: saline with Tween-80.
Setting [11] is: endpoint: median tumor weight (est.), dose: 100.0 mg/kg/injection, schedule: Q07DX002 (ip), vehicle: saline with Tween-80.
Setting [12] is: endpoint: median tumor weight (est.), dose: 200.0 mg/kg/injection, schedule: Q07DX002 (ip), vehicle: saline with Tween-80.

As to `O=CC(O)C(O)C(O)C(O)CO` (stereo not given), the T/C by setting is: (endpoint: median tumor weight (est.), dose: 75.0 mg/kg/injection, schedule: Q07DX002 (ip), vehicle: saline) 106 % of control; (endpoint: median tumor weight (est.), dose: 150.0 mg/kg/injection, schedule: Q07DX002 (ip), vehicle: saline) 79 % of control; under setting [1], 66 % of control; under setting [2], 94 % of control; under setting [3], 110 % of control.

For `Nc1ccn(C2OC(CO)C(O)C2O)c(=O)n1` (stereo not given), the T/C is 70 % of control under setting [1]; 90 % of control under setting [2]; 56 % of control under setting [3]; 64 % of control (endpoint: median tumor weight (est.), dose: 2400.0 mg/kg/injection, schedule: Q07DX002 (ip), vehicle: saline).

On to `CC(=O)C(=O)O.CC(=O)C(=O)O.[NH-]C1CCCCC1[NH-].[Pt+2]` (stereo not given), for which the T/C is 83 % of control (endpoint: median tumor weight (est.), dose: 6.25 mg/kg/injection, schedule: Q07DX002 (ip), vehicle: dextrose); 31 % of control (endpoint: median tumor weight (est.), dose: 12.5 mg/kg/injection, schedule: Q07DX002 (ip), vehicle: dextrose); 31 % of control (endpoint: median tumor weight (est.), dose: 25.0 mg/kg/injection, schedule: Q07DX002 (ip), vehicle: dextrose); 16 % of control (endpoint: median tumor weight (est.), dose: 50.0 mg/kg/injection, schedule: Q07DX002 (ip), vehicle: dextrose).

As for `CCC(C(=O)O)C(=O)O.[NH2-].[NH2-].[Pt+2]`, the T/C under setting [4] was 61 % of control, the T/C under setting [5] was 45 % of control and the T/C under setting [6] was 62 % of control.

`NC(CCC(=O)NC(CS)C(=O)NCC(=O)O)C(=O)O` (stereo not given): the T/C is, setting by setting: under setting [7], 89 % of control; under setting [8], 87 % of control; under setting [6], 102 % of control; under setting [9], 88 % of control; (endpoint: median tumor weight (est.), dose: 800.0 mg/kg/injection, schedule: Q07DX002 (ip), vehicle: saline) 113 % of control.

Consider `O=C(O)C1CC(O)CN1` (stereo not given), for which the T/C under setting [7] was 93 % of control, the T/C under setting [8] was 87 % of control and the T/C under setting [9] was 79 % of control.

Turning to `Nc1ccc2c(c1)CN1C(=O)c3ccccc3C1=N2`, the T/C (endpoint: median tumor weight (est.), dose: 6.25 mg/kg/injection, schedule: Q01DX008 (ip), vehicle: other) is 90 % of control; the T/C (endpoint: median tumor weight (est.), dose: 12.5 mg/kg/injection, schedule: Q01DX008 (ip), vehicle: other) was 69 % of control; the T/C (endpoint: median tumor weight (est.), dose: 25.0 mg/kg/injection, schedule: Q01DX008 (ip), vehicle: other) was 58 % of control; the T/C (endpoint: median tumor weight (est.), dose: 25.0 mg/kg/injection, schedule: Q07DX002 (ip), vehicle: other) was 82 % of control and 92 % of control; the T/C (endpoint: median tumor weight (est.), dose: 25.0 mg/kg/injection, schedule: Q07DX002 (ip), vehicle: saline with Tween-80) is 60 % of control; the T/C (endpoint: median tumor weight (est.), dose: 50.0 mg/kg/injection, schedule: Q01DX008 (ip), vehicle: other) is 21 % of control. In addition, the T/C was 56 % of control under setting [10]; 49 % of control (endpoint: median tumor weight (est.), dose: 100.0 mg/kg/injection, schedule: Q07DX002 (ip), vehicle: other); 60 % of control under setting [11]; 1 % of control (endpoint: median tumor weight (est.), dose: 200.0 mg/kg/injection, schedule: Q07DX002 (ip), vehicle: other); 35 % of control under setting [12]; 74 % of control (endpoint: median tumor weight (est.), dose: 355.9 mg/kg/injection, schedule: Q07DX002 (oral), vehicle: DMSO). The T/C by setting is: (endpoint: median tumor weight (est.), dose: 533.6 mg/kg/injection, schedule: Q07DX002 (oral), vehicle: DMSO) 94 % of control; (endpoint: median tumor weight (est.), dose: 800.0 mg/kg/injection, schedule: Q07DX002 (oral), vehicle: DMSO) 76 % of control; (endpoint: median tumor weight (est.), dose: 1200.0 mg/kg/injection, schedule: Q07DX002 (oral), vehicle: DMSO) 122 % of control; (endpoint: optimum tumor weight change, dose: 86.0 mg/kg/injection, schedule: Q07DX002 (ip), vehicle: saline with Tween-80) 77 % of control; (endpoint: optimum tumor weight change, dose: 144.0 mg/kg/injection, schedule: Q07DX002 (ip), vehicle: saline with Tween-80) 84 % of control; (endpoint: optimum tumor weight change, dose: 240.0 mg/kg/injection, schedule: Q07DX002 (ip), vehicle: saline with Tween-80) 84 % of control. The T/C (endpoint: optimum tumor weight change, dose: 400.0 mg/kg/injection, schedule: Q07DX002 (ip), vehicle: saline with Tween-80) was 71 % of control.

Take `O=C(C/C(=N\C(=S)Nc1cc(C(F)(F)F)ccc1Cl)NO)N1CCCC1`: the T/C reads like this: under setting [10], 85 % of control; under setting [11], 57 % of control; under setting [12], 70 % of control; (endpoint: median tumor weight (est.), dose: 400.0 mg/kg/injection, schedule: Q07DX002 (ip), vehicle: saline with Tween-80) 100 % of control.

As to `O=P1(NCCCl)OCCCN1CCCl` (stereo not given), the T/C (endpoint: median tumor weight (est.), dose: 30.0 mg/kg/injection, schedule: Q01DX006 (ip), vehicle: saline) is 61 % of control.

Take `O=c1[nH]cc(F)c(=O)[nH]1`: the T/C (endpoint: median tumor weight (est.), dose: 8.75 mg/kg/injection, schedule: Q07DX002 (ip), vehicle: saline) is 59 % of control; the T/C (endpoint: median tumor weight (est.), dose: 24.0 mg/kg/injection, schedule: Q01DX006 (ip), vehicle: saline) is 9 % of control; the T/C (endpoint: median tumor weight (est.), dose: 36.0 mg/kg/injection, schedule: Q01DX006 (ip), vehicle: saline) was 7 % of control; the T/C (endpoint: optimum tumor weight change, dose: 35.0 mg/kg/injection, schedule: Q07DX002 (ip), vehicle: saline) was 48 % of control; the T/C (endpoint: optimum tumor weight change, dose: 70.0 mg/kg/injection, schedule: Q07DX002 (ip), vehicle: saline) is 46 % of control; the T/C (endpoint: optimum tumor weight change, dose: 140.0 mg/kg/injection, schedule: Q07DX002 (ip), vehicle: saline) is 45 % of control.

As to `Cc1c2cc[n+](CCN3CCCCC3)cc2c(C)c2c1[nH]c1ccc(O)cc12`, the T/C is, setting by setting: (endpoint: median tumor weight (est.), dose: 6.25 mg/kg/injection, schedule: Q07DX002 (ip), vehicle: suspension in saline) 83 % of control; (endpoint: median tumor weight (est.), dose: 12.5 mg/kg/injection, schedule: Q07DX002 (ip), vehicle: suspension in saline) 71 % of control; (endpoint: median tumor weight (est.), dose: 25.0 mg/kg/injection, schedule: Q07DX002 (ip), vehicle: suspension in saline) 62 % of control; under setting [4], 53 % of control; under setting [5], 34 % of control.

With `N[C@@H](Cc1ccc(N(CCCl)CCCl)cc1)C(=O)O`, the T/C was 35 % of control (endpoint: median tumor weight (est.), dose: 1.2 mg/kg/injection, schedule: Q01DX006 (ip), vehicle: saline); 62 % of control (endpoint: median tumor weight (est.), dose: 1.8 mg/kg/injection, schedule: Q01DX006 (ip), vehicle: saline); 38 % of control (endpoint: median tumor weight (est.), dose: 2.7 mg/kg/injection, schedule: Q01DX006 (ip), vehicle: saline); 50 % of control (endpoint: median tumor weight (est.), dose: 4.0 mg/kg/injection, schedule: Q01DX006 (ip), vehicle: saline).

On to `NC(=O)C1=CC2C3C=CC2(O)C(=O)OC3O1` (stereo not given), for which the T/C reads like this: (endpoint: median tumor weight (est.), dose: 7.5 mg/kg/injection, schedule: Q07DX002 (ip), vehicle: Klucel (hydroxypropylcellulose) (HPC)) 73 % of control; (endpoint: median tumor weight (est.), dose: 15.0 mg/kg/injection, schedule: Q07DX002 (ip), vehicle: Klucel (hydroxypropylcellulose) (HPC)) 86 % of control; (endpoint: median tumor weight (est.), dose: 30.0 mg/kg/injection, schedule: Q07DX002 (ip), vehicle: Klucel (hydroxypropylcellulose) (HPC)) 112 % of control.

For the compound `COC(=O)C[C@](O)(CCC(C)(C)O)C(=O)O[C@@H]1C(OC)=C[C@]23CCCN2CCc2cc4c(cc2[C@H]13)OCO4`, the T/C was 117 % of control (endpoint: median tumor weight (est.), dose: 0.5 mg/kg/injection, schedule: Q07DX002 (ip), vehicle: saline); 54 % of control (endpoint: median tumor weight (est.), dose: 1.0 mg/kg/injection, schedule: Q07DX002 (ip), vehicle: saline); 40 % of control (endpoint: median tumor weight (est.), dose: 2.0 mg/kg/injection, schedule: Q07DX002 (ip), vehicle: saline); 14 % of control (endpoint: median tumor weight (est.), dose: 4.0 mg/kg/injection, schedule: Q07DX002 (ip), vehicle: saline).

In the case of `CCCCCNc1ncnc2c(C)[nH]nc12`, the T/C was 123 % of control (endpoint: median tumor weight (est.), dose: 50.0 mg/kg/injection, schedule: Q07DX002 (ip), vehicle: Klucel (hydroxypropylcellulose) (HPC)); 102 % of control (endpoint: median tumor weight (est.), dose: 100.0 mg/kg/injection, schedule: Q07DX002 (ip), vehicle: Klucel (hydroxypropylcellulose) (HPC)); 77 % of control (endpoint: median tumor weight (est.), dose: 200.0 mg/kg/injection, schedule: Q07DX002 (ip), vehicle: Klucel (hydroxypropylcellulose) (HPC)).

For `O=C(O)COc1cccc2c(=O)cc(-c3ccccc3)oc12`, the T/C is 52 % of control under setting [8] and 109 % of control under setting [6].
